Assays:
ADAM17 = biological target: T1, ADAM17 (Homo sapiens, UniProt P78536); test: ADAM17 glycosylated substrate uHTS/HTS assay; assay type: biochemical; details: original uHTS dose response, 10-point 1:3 dilutions starting at 70 µM
T1 construct: purchased R&D Systems 930-ADB
Procedure: Both assays followed the same general protocol. […] After 30 min incubation at RT, the reactions were started by addition of 2.5 µL of 2x solutions of glycosylated substrate (20 µM). Reactions were incubated at RT for 2 h, after which the fluorescence was measured using Perkin Elmer Viewlux multimode microplate imager (λexcitation = 360 nm, λemission = 460 nm). Final concentration of test compounds in assays was 7.0 µM.
The miniaturized 1536-well plate format ADAM10 and ADAM17 assays were used to screen a collection of ≈370,000 compounds (MLSMR library, provided by the NIH) on the automated Kalypsys/GNF platform at the Scripps Research Institute Molecular Screening Center (SRIMSC, Jupiter, FL. More details at http://hts.florida.scripps.edu/). […] Both uHTS campaigns were run separately but in a similar manner. Briefly, the first step was the primary screen of all MLSMR’s test compounds as singlicate against the ADAM10 or ADAM17 target at a final concentration of 7.0 μM. Next, compounds selected as primary hits were cherry-picked and retested in triplicate against the primary screen target and its anti-target (ADAM17 for the ADAM10 screening effort, and vice-versa) at the same final concentration of 7.0 μM. […] All data generated during this effort were uploaded to the SRIMSC’s institutional screening database (Assay Explorer, Symyx). Sample to background (S/B) ratios, as well as Z and Z′ values were calculated on a per-plate basis as described before. Curve fitting and resulting IC50 determinations were performed as previously reported.

ADAM10 = biological target: T2, ADAM10 (Homo sapiens, UniProt O14672); test: HPLC-based ADAM10 assay using glycosylated substrate; assay type: biochemical
T2 construct: purchased R&D Systems 936-AD
T2 sequence (O14672 214-748): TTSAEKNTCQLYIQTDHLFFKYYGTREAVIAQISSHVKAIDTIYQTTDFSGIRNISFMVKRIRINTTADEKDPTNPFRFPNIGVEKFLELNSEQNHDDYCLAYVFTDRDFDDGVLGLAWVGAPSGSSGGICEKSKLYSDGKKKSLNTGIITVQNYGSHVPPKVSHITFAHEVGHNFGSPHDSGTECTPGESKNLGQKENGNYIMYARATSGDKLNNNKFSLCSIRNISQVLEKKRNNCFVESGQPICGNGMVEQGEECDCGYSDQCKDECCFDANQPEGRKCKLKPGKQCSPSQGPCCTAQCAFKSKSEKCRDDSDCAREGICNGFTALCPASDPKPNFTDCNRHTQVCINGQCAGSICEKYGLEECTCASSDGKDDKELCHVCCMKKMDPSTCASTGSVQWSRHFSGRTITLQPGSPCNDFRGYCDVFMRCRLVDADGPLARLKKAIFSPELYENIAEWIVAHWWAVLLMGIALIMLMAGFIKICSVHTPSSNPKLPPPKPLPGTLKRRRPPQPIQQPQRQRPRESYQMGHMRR
Procedure: Both assays followed the same general protocol. 30 µL of 3x enzyme solution (30 nM) in assay buffer (10 mM Hepes, 0.001% Brij-35, pH 7.5) were added to solid bottom black 384 plates. Next, 30 µL of 3x test compounds and pharmacological controls were added to corresponding wells. After 30 min incubation at RT, the reactions were started by addition of 30 µL of 3x solution of glycosylated substrate (30 µM). Reactions were incubated at RT for 2 h and then quenched with 10 µL of 500 µM EDTA. Analytical RP-HPLC was performed on a 1260 Infinity Agilent Technologies liquid chromatograph equipped with an Agilent Poroshell 120 column. Eluents were 0.1% TFA in water (A) and 0.1% TFA in acetonitrile (B). The elution gradient was 0–98% B in 15 min with a flow rate of 1.0 mL/min. Detection was at λ = 214, 360, and 460 nm.

[1] = test system: shedding of CXCL16 in A549 cells; test: CXCL16 shedding inhibition (ELISA); assay type: cell-based, human
Procedure: A549 cells were seeded in 12-well plates and grown to confluency in DMEM supplemented with 10% FBS and 1% P/S. Subsequently, cells were starved serum-free for 4 h, incubated for 1 h with GI 254023X or CID 3117694 (concentrations as indicated) or DMSO (vehicle, 0.1%) and afterwards stimulated with 10 ng/mL TNF and 10 ng/mL IFN for 24 h or left untreated in the presence of inhibitors or DMSO. Supernatants (500 µL) were harvested and centrifuged for 10 min at 16100 g and 4 °C. […] of CXCL16 were measured using the DuoSet human CXCL16 Elisa Kit (R&D systems, Wiesbaden, Germany). Samples were stored at −80 °C and diluted 2-fold after careful thawing. The standard ranged from 0 to 25,000 pg/mL with a detection limit of 391 pg/mL. For detection of soluble syndecan-4, conditioned media (200 µL) were 2-fold diluted in blotting buffer (0.15 M NaCl buffered to pH 4.5 with 50 mM sodium acetate, and with 0.1% Triton X-100), and applied to cationic polyvinylidene difluoride-based membranes (Hybond-N, Amersham Biosciences, Freiburg, Germany) under vacuum in a dot blot apparatus (Amersham Biosciences). The membranes were blocked for 1 h with PBS-T supplemented with 1% bovine serum albumin and 3% milk powder. Human syndecan-4 was detected by incubating membranes overnight at 4 °C with mouse anti-syndecan-4 mAb (0.6 µg/mL) followed by incubation with POD-coupled goat anti-mouse Ab (27 ng/mL in PBS, Jackson Immunoresearch). Chemiluminescence was recorded and quantified using the luminescent image analyzer LAS3000 substrate after addition of ECL advanced substrate (Amersham Biosciences).

MDA-MB-231 cells = test: Wound closure assay, MDA-MB-231; assay type: cell-based; details: MDA-MB-231, 10 µM
Procedure: For live-cell analysis of scratch-induced wound closure, 2.5 × 10^4 MDA-MB-231 and A549 cells per well were seeded in collagen G (40 µg/mL) (Biochrom AG, Germany) coated 96-well plates near confluence and allowed to grow overnight in standard medium (DMEM supplemented with 10% FBS and 1% P/S). At confluence, cells were pretreated 2 h with mitomycin (10 µg/mL) (Medac, Germany) to block cell proliferation and washed with standard media. Afterwards, cells were incubated in the presence of inhibitor at the indicated concentrations or DMSO (0.1% vehicle). Subsequently, a defined scratch (wound width between 642–767 µm) was performed in each well using the certified Essen Bioscience automated 96-wound maker^TM (Essen Biosciences, Hertfordshire, UK) for 96 well-plates. The medium was removed and 100 µL standard medium were added to the wells containing either inhibitor or DMSO. The closure of the wounded area was monitored using the IncuCyte ZOOM system by taking images of each well every 2 h over a period of 24 h. The reduction of wound width was determined over time using the IncuCyte ZOOM microscope software 2014A. Data were expressed as percentage of wound closure after 8 h.

T1 sequence (P78536 215-824): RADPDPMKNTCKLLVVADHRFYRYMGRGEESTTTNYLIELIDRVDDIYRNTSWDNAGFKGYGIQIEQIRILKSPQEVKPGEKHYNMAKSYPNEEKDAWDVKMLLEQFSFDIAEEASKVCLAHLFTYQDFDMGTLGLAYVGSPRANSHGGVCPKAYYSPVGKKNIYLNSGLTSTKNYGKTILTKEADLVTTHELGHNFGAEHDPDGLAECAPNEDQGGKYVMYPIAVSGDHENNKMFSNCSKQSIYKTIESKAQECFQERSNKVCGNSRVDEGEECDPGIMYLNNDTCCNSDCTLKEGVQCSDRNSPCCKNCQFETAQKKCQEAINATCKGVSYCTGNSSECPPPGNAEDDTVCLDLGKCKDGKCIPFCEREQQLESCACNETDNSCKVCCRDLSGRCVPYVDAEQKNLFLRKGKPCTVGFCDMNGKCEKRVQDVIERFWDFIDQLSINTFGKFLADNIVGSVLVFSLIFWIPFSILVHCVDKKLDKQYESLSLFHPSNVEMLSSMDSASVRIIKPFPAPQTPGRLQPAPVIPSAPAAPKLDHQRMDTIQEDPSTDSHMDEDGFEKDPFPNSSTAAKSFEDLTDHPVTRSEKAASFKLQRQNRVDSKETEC

SMILES: COc1cccc(C(=O)NNC(=O)C(=O)Nc2ccc(C)c(Cl)c2)c1 [CID 3117694]
- IC50 (ADAM17): > 70 µM
- IC50 (ADAM10): 4.1 µM
- inhibition of cytokine-inducible shedding of CXCL16 ([1]; TNF/IFN stimulation 24 h): inhibited cytokine-inducible
- inhibition of constitutive shedding of CXCL16 ([1]; unstimulated): not the constitutive shedding
- effect on wound healing (MDA-MB-231 cells): significantly decreased wound healing
